We go through four compounds from patent publication US7229999B2, “Pyridine-3-carboxamide derivatives as CB1 inverse agonists” (Hoffmann-La Roche Inc., priority 2005, dated 2007).

Read-outs that look alike come from different tables or passages of the source.

Data set [1] has as its target T1, human cannabis CB1 receptor (Homo sapiens, UniProt P21554).
T1 construct: expressed in transfected cells; host or cells: human embryonic kidney (HEK) cells, transient, Semliki Forest Virus system
Nature of the data set: Affinity for cannabinoid CB1 receptors, [3H]-CP-55,940 radioligand binding on HEK cell membranes. As for the experimental part:
The affinity of the compounds of the invention for cannabinoid CB1 receptors was determined using membrane preparations of human embryonic kidney (HEK) cells in which the human cannabis CB1 receptor is transiently transfected using the Semliki Forest Virus system in conjunction with [3H]-CP-55,940 as radioligand. After incubation of a freshly prepared cell membrane preparation with the [3H]-ligand, with or without addition of compounds of the invention, separation of bound and free ligand was performed by filtration over glassfiber filters. Radioactivity on the filter was measured by liquid scintillation counting.

For data set [2] the following is noted: doses of 10 and 20 mg daily; cited from earlier work.

T1 sequence (P21554 whole entry): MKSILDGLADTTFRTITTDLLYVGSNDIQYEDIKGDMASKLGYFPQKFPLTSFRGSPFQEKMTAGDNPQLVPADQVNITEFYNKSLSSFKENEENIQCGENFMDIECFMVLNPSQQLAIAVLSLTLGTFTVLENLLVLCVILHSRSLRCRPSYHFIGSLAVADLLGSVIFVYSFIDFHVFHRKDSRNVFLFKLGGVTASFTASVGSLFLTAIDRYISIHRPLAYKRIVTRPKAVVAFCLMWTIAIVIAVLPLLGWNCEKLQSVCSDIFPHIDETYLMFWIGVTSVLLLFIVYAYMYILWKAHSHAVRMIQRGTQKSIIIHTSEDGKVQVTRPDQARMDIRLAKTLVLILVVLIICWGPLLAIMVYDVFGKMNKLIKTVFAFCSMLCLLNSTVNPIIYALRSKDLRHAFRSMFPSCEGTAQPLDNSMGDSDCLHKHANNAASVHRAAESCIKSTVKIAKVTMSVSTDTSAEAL

Compound `O=C(N[C@@H]1CCCC[C@H]1O)c1cnc(OCC2CC2)c(-c2cc(C(F)(F)F)ccc2F)c1` [Example 7, 6-Cyclopropylmethoxy-5-(2-fluoro-5-trifluoromethyl-phenyl)-N-((1R,2R)-2-hydroxy-cyclohexyl)-nicotinamide] registered an IC50 in data set [1] of 102 nM.
Turning to `Cc1c(C(=O)NN2CCCCC2)nn(-c2ccc(Cl)cc2Cl)c1-c1ccc(Cl)cc1` [SR 141716], in data set [2], the “body weight compared to placebo” value was “significantly reduced body weight”.
In data set [1], `CCCCOc1ncc(C(=O)N[C@@H]2CCCC[C@H]2O)cc1-c1ccc(Cl)cc1` [Example 3, 6-Butoxy-5-(4-chloro-phenyl)-N-((1R,2R)-2-hydroxy-cyclohexyl)-nicotinamide] had an IC50 of 39 nM.
`CCCCOc1ncc(C(=O)N[C@@H]2CCCC[C@H]2O)cc1-c1cc(C(F)(F)F)ccc1F` [Example 2, 6-Butoxy-5-(2-fluoro-5-trifluoromethyl-phenyl)-N-((1R,2R)-2-hydroxy-cyclohexyl)-nicotinamide] had a melting point of 172 to 178 °C. The IC50 in data set [1] (affinity for the CB1 receptor, read-out: IC50) was 186 nM.

Broadly, the IC50 is the point on the concentration scale where inhibition reaches its midpoint. One may read the melting point as the temperature of the solid-liquid transition.
